What was measured:
[1] = test system: patients with relapsing multiple sclerosis (RMS); assay: OPTIMUM phase 3 study (NCT02425644): systemic corticosteroid (SCS) use for treatment of relapse, ponesimod 20 mg vs teriflunomide 14 mg; format: in vivo, human; conditions: for proportion of patients who received ≥1 SCS therapy for treatment of relapse / least squares mean of accumulated steroid dose (prednisone equivalent doses) for treatment of relapse: full analysis set; for proportion of patients who received ≥1 SCS therapy for treatment of relapse: between study treatment start and EOS, PON 20 mg vs TER 14 mg, P<0.0001
Experimental: Subjects were evaluated according to the treatment they were randomized to. • Primary efficacy variable/primary timepoint: The primary endpoint was annualized relapse rate (ARR) up to the end of study (EOS) defined as the number of confirmed relapses per subject-year. All available data up to EOS, regardless of treatment discontinuation was included (ITT approach). Co-Administration of Ponesimod with Corticosteroids
OPTIMUM was a phase 3, double-blind, randomized clinical trial that evaluated the efficacy, safety, and tolerability of PON (20 mg) versus TER (14 mg) in patients with RMS.
Patients with RMS aged 18 to 55 years with a relapsing course (i.e., RMS or secondary progressive MS with superimposed relapses), an Expanded Disability Status Scale (EDSS) score of 0-5.5, and recent clinical or magnetic resonance imaging activity were enrolled.
Patients were excluded from the primary analysis if they received treatment with SCS, unless it was for a multiple sclerosis (MS) relapse or short-term treatment of pulmonary conditions.
In this analysis, the proportions of patients in each treatment group who received concomitant treatment with ≥1 SCS to treat MS relapse between the start of study treatment and end of study (EOS) were compared. In addition, the mean accumulated steroid dose (prednisone equivalent doses in mg) administered to treat relapse between start of study treatment and EOS and between end of treatment (EOT) plus follow-up time was assessed.
Data are shown for analyses of the full analysis set and analyses stratified by baseline EDSS score (baseline EDSS score≤3.5 versus >3.5), prior MS treatment (disease modifying treatment [DMT] within the past 2 years versus no DMT within the past 2 years), or sex (male versus female).
The proportion of patients who received ≥1 SCS therapy for treatment of relapse is provided by treatment group; group differences were examined using Cochran-Mantel Haenszel (CMH) test and stratified by baseline EDSS and prior treatment with DMT.
The between-group difference for the mean accumulated steroid dose for treatment of relapse was evaluated using analysis of covariance models with accumulated steroid dose as the dependent variable, treatment as factor, and EDSS baseline group, and prior treatment with disease-modifying therapy within 2 years prior to randomization as covariates. EDSS baseline group was removed from the model for analyses stratified by baseline EDSS score.

[2] = test system: peripheral blood lymphocyte count; conditions: cited from earlier work
[3] = in vivo; cited from earlier work
[4] = from start of study treatment to EOS, P=0.0005
[5] = from start of study treatment to EOT+7 days of follow up, P=0.0007

SMILES | reduction of annualized relapse rate (ARR) ([1]; PON 20 mg vs teriflunomide (TER) 14 mg, patients with RMS) | proportion of patients who received ≥1 SCS therapy for treatment of relapse [1] [%] | least squares mean of accumulated steroid dose (prednisone equivalent doses) for treatment of relapse [1, 4] [mg] | least squares mean of accumulated steroid dose (prednisone equivalent doses) for treatment of relapse [1, 5] [mg] | proportion of patients who received ≥1 SCS therapy, stratified by baseline disability ([1]; only among patients with baseline EDSS≤3.5, compared with teriflunomide group) | peripheral blood lymphocyte count ([2]; blocking the egress of lymphocytes from lymphoid organs) | monocyte, natural killer (NK) cell and neutrophil counts ([2]; in vivo) | elimination from plasma [3]
CCC/N=C1\S/C(=C\c2ccc(OC[C@H](O)CO)c(Cl)c2)C(=O)N1c1ccccc1C [PON, (R)-5-[3-chloro-4-(2,3-dihydroxy-propoxy)-benz[Z]ylidene]-2-([Z]-propylimino)-3-o-tolyl-thiazolidin-4-one] | superior efficacy | 29.1 | 3207.1 | 2977.1 | significantly smaller proportion | rapid, dose-dependent, and reversible reduction | not reduced | 
C/C(O)=C(\C#N)C(=O)Nc1ccc(C(F)(F)F)cc1 [TER] |  | 40.10 | 4257.2 | 3957.4 |  |  |  | eliminated slowly

Reference: patent US20250332147A1, “Methods of Treating Multiple Sclerosis” (Vanda Pharmaceuticals Inc., priority 2021, published 2025)
